Here are results for 14 compounds from patent US6090828A, “5-aryleheteroarylalkyl-1,3,5-trisubstituted-1,2,4-triazole compounds for treatment of circulatory disorders” (priority 1997, dated 2000).

Where two headings read alike, the source gives them in different places.

Assay [1] concerns the target smooth muscle angiotensin II receptor. Put plainly: Assay A: Angiotensin II Binding Activity. As to conditions: 50% displacement of specifically bound 125I-AII; rat uterine membranes; pH 7.5; 25° C., 60 min. The method, then: Compounds of the invention were tested for ability to bind to the smooth muscle angiotensin II receptor using a rat uterine membrane preparation. […] Rat uterine membranes were prepared from fresh tissue. All procedures were carried out at 4° C. Uteri were stripped of fat and homogenized in phosphate-buffered saline at pH 7.4 containing 5 mM EDTA. The homogenate was centrifuged at 1500×g for 20 min., and the supernatant was recentrifuged at 100,000×g for 60 min. The pellet was resuspended in buffer consisting of 2 mM EDTA and 50 mM Tris-HCl (pH 7.5) to a final protein concentration of 4 mg/ml. […] The reaction was initiated by the addition of membrane protein and the mixture was incubated at 25° C. for 60 min. The incubation was terminated with ice-cold 50 mM Tris-HCl (pH 7.5) and the mixture was filtered to separate membrane-bound labelled peptide from the free ligand. The incubation tube and filter were washed with ice-cold buffer. Filters were assayed for radioactivity in a Micromedic gamma counter. Nonspecific binding was defined as binding in the presence of 10 μM of unlabelled AII. Specific binding was calculated as total binding minus nonspecific binding. […] Binding data were analyzed by a nonlinear least-squares curve fitting program.

Assay [2] has as its system pressor response to AII. Put plainly: Assay C: In Vivo Intragastric Pressor Assay Response for AII Antagonists. The arrangement: species or system rat (male Sprague-Dawley). As to conditions: 3 mg/kg (i.g.), AII 30 ng/kg i.v. bolus; for Duration: followed to 180 minutes; for inhibition in vivo at 3 mg/kg: Rattus norvegicus, po. The method, then: The catheters were tunneled subcutaneously to exit dorsally, posterior to the head and between the scapulae. The catheters were filled with heparin (1000 units/ml of saline). The rats were returned to their cage and allowed regular rat chow and water ad libitum. After full recovery from surgery (3-4 days), rats were placed in Lucite holders and the arterial line was connected to a pressure transducer. Arterial pressure was recorded on a Gould polygraph (mmHg). Angiotensin II was administered as a 30 ng/kg bolus via the venous catheter delivered in a 50 μl volume with a 0.2 ml saline flush. The pressor response in mm Hg was measured by the difference from pre-injection arterial pressure to the maximum pressure achieved. The AII injection was repeated every 10 minutes until three consecutive injections yielded responses within 4 mmHg of each other. These three responses were then averaged and represented the control response to AII. The test compound was suspended in 0.5% methylcellulose in water and was administered by gavage. The volume administered was 2 ml/kg body weight. The standard dose was 3 mg/kg. Angiotensin II bolus injections were given at 30, 45, 60, 75, 120, 150, and 180 minutes after gavage. The pressor response to AII was measured at each time point. The rats were then returned to their cage for future testing. A minimum of 3 days was allowed between tests. Percent inhibition was calculated for each time point following gavage by the following formula: [(Control Response-Response at time point)/Control Response]×100.

For assay [3], the target named is T1, rabbit aortic rings (Oryctolagus cuniculus, UniProt P34976).
T1 construct: The thoracic aorta was removed, cleaned of adherent fat and connective tissue and then cut into 3-mm ring segments; from tissue; host or cells: rabbit thoracic aorta rings, endothelium removed
T1 sequence (P34976 1-359): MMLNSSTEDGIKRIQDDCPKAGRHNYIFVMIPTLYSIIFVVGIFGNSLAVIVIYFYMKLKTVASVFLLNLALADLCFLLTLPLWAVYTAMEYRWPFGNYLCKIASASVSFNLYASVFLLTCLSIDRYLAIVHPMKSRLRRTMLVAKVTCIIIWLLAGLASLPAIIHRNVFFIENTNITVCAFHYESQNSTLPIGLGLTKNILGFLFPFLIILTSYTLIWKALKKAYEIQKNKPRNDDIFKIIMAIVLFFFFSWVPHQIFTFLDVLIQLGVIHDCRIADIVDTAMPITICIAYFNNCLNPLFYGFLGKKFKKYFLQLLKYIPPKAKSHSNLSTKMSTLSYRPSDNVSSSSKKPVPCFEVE
Put plainly: Assay B: In Vitro Vascular Smooth Muscle Response for AII. Also on record: species or system rabbit (male New Zealand white). As to conditions: rabbit aorta rings, two rabbits per antagonist, antagonist 10^-5 M, 5 minutes, AII contraction, Schild. As for the experimental part:
The compounds of the invention were tested for antagonist activity in rabbit aortic rings. Male New Zealand white rabbits (2-2.5 kg) were sacrificed using an overdose of pentobarbital and exsanguinated via the carotid arteries. The thoracic aorta was removed, cleaned of adherent fat and connective tissue and then cut into 3-mm ring segments. The endothelium was removed from the rings by gently sliding a rolled-up piece of filter paper into the vessel lumen. The rings were then mounted in a water-jacketed tissue bath, maintained at 37° C., between moveable and fixed ends of a stainless steel wire with the moveable end attached to an FT03 Grass transducer coupled to a Model 7D Grass Polygraph for recording isometric force responses. […] The preparations were equilibrated for one hour before approximately one gram of passive tension was placed on the rings. Angiotensin II concentration-response curves were then recorded (3×10^-10 to 1×10^-5 M). Each concentration of AII was allowed to elicit its maximal contraction, and then AII was washed out repeatedly for 30 minutes before rechallenging with a higher concentration of AII. Aorta rings were exposed to the test antagonist at 10^-5 M for 5 minutes before challenging with AII. Adjacent segments of the same aorta ring were used for all concentration-response curves in the presence or absence of the test antagonist. […] The pA2 value is the concentration of the antagonist which increases the EC50 value for AII by a factor of two. Each test antagonist was evaluated in aorta rings from two rabbits.

In assay [4] the test system is angiotensin II receptor. The conditions noted are these: binding experiments, functional assays and in vivo tests; literature; cited from earlier work.
Where [5] appears, read: read-out: pA2 (first of two values) (converted).
The mark [6] stands for this setting: read-out: pA2 (second of two values) (converted).

Broadly, the IC50 is the concentration that gives 50% inhibition. Low values mean greater potency, high ones weaker potency. As usually defined, the inhibition in vivo is the percentage by which the read-out fell short of the control. In turn, `CCCCn1nc(C(OC)OC)nc1Cc1ccc(-c2ccccc2-c2nnn[nH]2)nc1` [Example 26, 5-[2-[5-[[1-butyl-3-dimethoxymethyl-1H-1,2,4-triazol-5-yl]methyl]-2-pyridinyl]phenyl]-1H-tetrazole] came in with an IC50 in assay [1] of 27 nM. The compound also had a Duration in assay [2] of 0 min. Also, the inhibition in vivo at 3 mg/kg in assay [2] (conscious rats) was 0%.
For the compound `CCCCc1nc(Cc2ccc(-c3ccccc3-c3nnn[nH]3)nc2)n(CCCC)n1` [Example 1, 5-[2-[5-[(1,3-dibutyl-1H,1,2,4-triazol-5-yl)methyl]-2-pyridinyl]phenyl]-1H-tetrazole], the values for the Kb in assay [3] (setting [5]) and in assay [3] (setting [6]) were 9.33 nM and 15.8 nM, respectively. In assay [1], this compound registered an IC50 of 14 nM. Also, the Duration in assay [2] is > 180 min. Besides, the inhibition in vivo at 3 mg/kg in assay [2] (conscious rats) was determined as 25%.
On the same counts, the results for `CCCCn1nc(C(O)CCC)nc1Cc1ccc(-c2ccccc2-c2nnn[nH]2)nc1` (centres unmarked) [Example 10, 5-[2-[5-[[1-butyl-3-(1-hydroxybutyl)-1H-1,2,4-triazol-5-yl]methyl]-2-pyridinyl]phenyl]-1H-tetrazole] are 12 nM, 27.5 nM, 21 nM, 150 min and 10%.
On the same counts, the results for `CCCCn1nc(CCc2cccs2)nc1Cc1ccc(-c2ccccc2-c2nnn[nH]2)nc1` [Example 4, 5-[2-[5-[[1-butyl-3-[2-(2-thienyl)ethyl]-1H-1,2,4-triazol-5-yl]methyl]-2-pyridinyl]phenyl]-1H-tetrazole] are 5.01 nM, 20.4 nM, 13 nM, > 180 min and 25%.
For `CCCCn1nc(C(OCC)OCC)nc1Cc1ccc(-c2ccccc2-c2nnn[nH]2)nc1` [Example 27, 5-[2-[5-[[1-butyl-3-diethoxymethyl-1H-1,2,4-triazol-5-yl]methyl]-2-pyridinyl]phenyl]-1H-tetrazole] the same measures were 20.4 nM, 28.2 nM, 9.8 nM, 150 min and 10%.
Consider `CCCCc1nc(Cl)c(CC(=O)O)n1Cc1ccccc1Cl` [2-n-butyl-4-chloro-1-(2-chlorobenzyl)imidazole-5-acetic acid], for which, in assay [4], the “angiotensin II antagonist activity” value is “specific competitive angiotensin II antagonist activity”.
For `CCCn1nc(C(F)(F)CCC)nc1Cc1ccc(-c2ccccc2-c2nnn[nH]2)nc1` [Example 20, 5-[2-[5-[[1-propyl-3-(1,1-difluorobutyl)-1H-1,2,4-triazol-5-yl]methyl]-2-pyridinyl]phenyl]-1H-tetrazole], the Kb in assay [3] (setting [5]) was 16.6 nM; in assay [3] (setting [6]) it was 26.3 nM. In addition, in assay [1], the IC50 amounted to 150 nM. In assay [2], this compound returned a Duration of 180 min. For the same compound, testing at 3 mg/kg in assay [2] (conscious rats) gave an inhibition in vivo of 15%.
For `CCCCn1nc(-c2ccccc2Cl)nc1Cc1ccc(-c2ccccc2-c2nnn[nH]2)nc1` [Example 9, 5-[2-[5-[[1-butyl-3-(2-chlorophenyl)-1H-1,2,4-triazol-5-yl]methyl]-2-pyridinyl]phenyl]-1H-tetrazole] the same measures were 5.89 nM, 7.24 nM, 54 nM, > 180 min and 30%.
As for `CCCCn1nc(C2OCC(C)(C)CO2)nc1Cc1ccc(-c2ccccc2-c2nnn[nH]2)nc1` [Example 32, 5-[2-[5-[[1-butyl-3-[2-(5,5-dimethyl-1,3-dioxanyl)]-1H-1,2,4-triazol-5-yl]methyl]-2-pyridinyl]phenyl]-1H-tetrazole], the Kb in assay [3] (setting [5]) is 20 nM; in assay [3] (setting [6]) it was 75.9 nM. This compound had an IC50 in assay [1] of 21 nM. This compound also gave a Duration in assay [2] of 180 min. In addition, testing at 3 mg/kg in assay [2] (conscious rats) gave an inhibition in vivo of 20%.
On the same counts, the results for `CCCCn1nc(C(=O)N(C)C(C)(C)C)nc1Cc1ccc(-c2ccccc2-c2nnn[nH]2)nc1` [Example 22, 5-[2-[5-[[1-butyl-3-(N-methyl-N-tertbutylamido)-1H-1,2,4-triazol-5-yl]methyl]-2-pyridinyl]phenyl]-1H-tetrazole] are 30.2 nM, 77.6 nM, 28 nM, 0 min and 0%.
Consider `CCCCn1nc(C2OCCCO2)nc1Cc1ccc(-c2ccccc2-c2nnn[nH]2)nc1` [Example 31, 5-[2-[5-[[1-butyl-3-[2-(1,3-dioxanyl)]-1H-1,2,4-triazol-5-yl]methyl]-2-pyridinyl]phenyl]-1H-tetrazole], for which the Kb in assay [3] (setting [5]) was 27.5 nM; in assay [3] (setting [6]), 70.8 nM. Further, the IC50 in assay [1] came to 20 nM. In addition, the Duration in assay [2] was 180 min. This compound had an inhibition in vivo at 3 mg/kg in assay [2] (conscious rats) of 25%.
In general, Inhibition refers to the change of the read-out against control, counted positive when it falls. A low value points to a response near the control. Consider “5-[2-[5-[(1-butyl-3-propyl-1H-1,2,4-triazol-5-yl)methyl]-2-pyridinyl]phenyl]-1H-tetrazole [Example 3]”, for which, in assay [3], the “pA2 (first of two values)” value is recorded as 7.46 and the “pA2 (second of two values)” value was determined as 7.23. In addition, the IC50 in assay [1] was found to be 150 nM. In addition, in assay [2] (conscious rats), the Inhibition is reported as 10%. In assay [2], this compound gave a Duration of 140 min.
Consider `CCCCn1nc(C(F)(F)CCC)nc1Cc1ccc(-c2ccccc2-c2nnn[nH]2)nc1` [Example 21, 5-[2-[5-[[1-butyl-3-(1,1-difluorobutyl)-1H-1,2,4-triazol-5-yl]methyl]-2-pyridinyl]phenyl]-1H-tetrazole], for which the Kb in assay [3] (setting [5]) is 83.2 nM; in assay [3] (setting [6]), 17 nM. In addition, the IC50 in assay [1] came out at 26 nM. Further, the Duration in assay [2] was > 180 min. The compound also yielded an inhibition in vivo at 3 mg/kg in assay [2] (conscious rats) of 40%.
For `CCCCn1nc(C(F)F)nc1Cc1ccc(-c2ccccc2-c2nnn[nH]2)nc1` [Example 14, 5-[2-[5-[(1-butyl-3-difluoromethyl-1H-1,2,4-triazol-5-yl)methyl]-2-pyridinyl]phenyl]-1H-tetrazole], the Kb in assay [3] (setting [5]) was 38 nM; in assay [3] (setting [6]) it was 178 nM. The compound also yielded an IC50 in assay [1] of 420 nM.
